Reference: ChEMBL document CHEMBL1221256, “A mutant selective anti-estrogen is a pure antagonist on EREs and AP-1 response elements” (Bioorg Med Chem Lett, 2010)
Active and inactive are the calls of the source. The rule behind the calls is not given here.

Columns and labels:
[1] = target: T1, Estrogen receptor (Homo sapiens) (UniProt P03372); experiment: Agonist activity at human wild type ERalpha expressed in human HeLa cells co-expressing AP-1 assessed as transactivation activity by luciferase reporter gene assay; type: functional, cell-based
T1 sequence (whole entry): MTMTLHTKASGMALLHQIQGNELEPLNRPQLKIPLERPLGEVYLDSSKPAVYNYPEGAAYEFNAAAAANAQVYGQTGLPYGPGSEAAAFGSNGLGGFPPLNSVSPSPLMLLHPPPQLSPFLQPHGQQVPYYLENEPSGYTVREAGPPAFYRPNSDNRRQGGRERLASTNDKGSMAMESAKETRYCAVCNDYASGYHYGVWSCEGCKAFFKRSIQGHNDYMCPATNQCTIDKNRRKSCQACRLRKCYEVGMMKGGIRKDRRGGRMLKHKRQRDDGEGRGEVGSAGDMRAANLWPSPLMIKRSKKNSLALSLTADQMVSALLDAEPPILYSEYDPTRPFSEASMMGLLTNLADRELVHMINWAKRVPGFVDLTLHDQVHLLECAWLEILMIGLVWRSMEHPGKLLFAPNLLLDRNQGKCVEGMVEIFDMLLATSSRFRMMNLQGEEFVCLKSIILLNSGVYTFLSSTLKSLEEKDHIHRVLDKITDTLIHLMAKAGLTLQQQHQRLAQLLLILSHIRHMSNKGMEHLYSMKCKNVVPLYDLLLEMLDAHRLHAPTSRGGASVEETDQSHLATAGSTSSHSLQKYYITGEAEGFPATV

[2] = test system: Estrogen receptor beta (Homo sapiens), Q92731 [E305A]; experiment: Antagonist activity at human ERbeta E305A mutant expressed in human HeLa cells co-expressing AP-1 assessed as inhibition of transactivation activity at up to 10 uM by luciferase reporter gene assay; type: functional, cell-based
Estrogen receptor beta (Homo sapiens), Q92731 [E305A], sequence (Q92731 whole entry E305A): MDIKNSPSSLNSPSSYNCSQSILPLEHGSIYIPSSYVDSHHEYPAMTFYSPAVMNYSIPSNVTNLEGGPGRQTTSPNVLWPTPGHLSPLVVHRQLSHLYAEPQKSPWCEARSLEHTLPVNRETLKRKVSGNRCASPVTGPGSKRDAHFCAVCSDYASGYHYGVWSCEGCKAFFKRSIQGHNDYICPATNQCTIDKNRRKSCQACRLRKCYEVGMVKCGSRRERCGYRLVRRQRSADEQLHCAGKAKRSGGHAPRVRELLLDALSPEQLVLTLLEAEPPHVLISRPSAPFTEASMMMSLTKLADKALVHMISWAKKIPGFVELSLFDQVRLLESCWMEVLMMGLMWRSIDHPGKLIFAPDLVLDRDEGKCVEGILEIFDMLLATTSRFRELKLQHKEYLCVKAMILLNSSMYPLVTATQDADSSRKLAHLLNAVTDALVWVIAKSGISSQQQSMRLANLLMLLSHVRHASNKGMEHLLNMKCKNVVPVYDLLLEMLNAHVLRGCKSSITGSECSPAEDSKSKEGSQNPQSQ

[3] = target: Estrogen receptor (Homo sapiens, UniProt P03372, E353A)
Estrogen receptor (Homo sapiens, UniProt P03372, E353A), sequence (P03372 whole entry E353A): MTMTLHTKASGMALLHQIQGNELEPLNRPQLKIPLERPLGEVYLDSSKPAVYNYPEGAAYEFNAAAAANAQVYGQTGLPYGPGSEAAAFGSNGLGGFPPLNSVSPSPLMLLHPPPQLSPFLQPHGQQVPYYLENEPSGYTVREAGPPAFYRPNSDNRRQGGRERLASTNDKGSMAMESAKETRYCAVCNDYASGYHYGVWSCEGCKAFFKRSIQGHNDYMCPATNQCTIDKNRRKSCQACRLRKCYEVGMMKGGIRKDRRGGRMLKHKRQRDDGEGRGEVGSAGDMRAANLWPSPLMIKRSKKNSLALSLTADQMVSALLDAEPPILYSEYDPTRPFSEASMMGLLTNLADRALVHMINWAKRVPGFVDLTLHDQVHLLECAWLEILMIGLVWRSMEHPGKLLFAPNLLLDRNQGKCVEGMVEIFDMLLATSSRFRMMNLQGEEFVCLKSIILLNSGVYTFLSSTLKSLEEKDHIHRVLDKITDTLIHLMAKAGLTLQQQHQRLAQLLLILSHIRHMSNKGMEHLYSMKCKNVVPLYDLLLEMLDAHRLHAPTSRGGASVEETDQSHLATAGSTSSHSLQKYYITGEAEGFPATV

[4] = target: T2, Estrogen receptor beta (Homo sapiens, UniProt Q92731)
T2 sequence (Q92731 whole entry): as the sequence (Q92731 whole entry E305A) above, with A305E counted along it

[5] = target: T3, Estrogen receptor (Homo sapiens, UniProt P03372)
T3 sequence (P03372 whole entry): T1 sequence (whole entry)

[6] = target: Estrogen receptor beta (Homo sapiens, UniProt Q92731, E305A)
Estrogen receptor beta (Homo sapiens, UniProt Q92731, E305A), sequence (Q92731 whole entry E305A): as the sequence (Q92731 whole entry E305A) above

[7] = target: T2, Estrogen receptor beta; remark: listed apart in the source
Description: Antagonist activity at human wild type ERbeta expressed in human HeLa cells co-expressing AP-1 assessed as inhibition of transactivation activity by luciferase reporter gene assay

[8] = target: T2, Estrogen receptor beta; remark: listed apart in the source

| Activity [2] | IC50 [3] [nM] | IC50 [4] [nM] | IC50 [5] [nM] | IC50 [6] [nM] | EC50 [7] [nM] | IC50 [8] [nM] | SMILES | Activity [1] |
| --- | --- | --- | --- | --- | --- | --- | --- | --- |
|  |  |  |  |  |  |  | CCCCN(C)C(=O)CCCCCCCCCC[C@@H]1Cc2cc(O)ccc2[C@H]2CC[C@]3(C)[C@@H](O)CC[C@H]3[C@H]12 | Active |
| inactive | 212 | > 10000 | 82 | > 10000 | 150 | 104 | O=C(O)/C=C/c1ccc2c(C(=O)c3ccc(OCCN4CCCCC4)cc3)c(-c3ccc(O)cc3)sc2c1 |  |
